The record followed here is paper PMC9516332 (Frontiers in Oncology, 2022).

Where two headings read alike, the source gives them in different places.

What all share (assay): Kinase panel profiling at 1 µmol/L (MSA or IMAP), percentage inhibition
Format in all cases: biochemical

Test [1] concerns the target panel of 255 wild-type kinases (Homo sapiens, UniProt P16234). The note with it: kinase PDGFRα; 1 µmol/L single concentration; read-out: %-inhibition at 1 µmol/L, PDGFRα.
The target in test [2] is panel of 255 wild-type kinases (Homo sapiens, UniProt P07949). The note with it: kinase RET; 1 µmol/L single concentration; read-out: %-inhibition at 1 µmol/L, RET.
In test [3] the target is panel of 255 wild-type kinases (Homo sapiens, UniProt Q16539). The settings on record: p38α; 1 µmol/L single concentration; read-out: %-inhibition, p38α.
For test [4], the target named is panel of 255 wild-type kinases (Homo sapiens, UniProt O43683). The settings on record: BUB1/BUB3 kinase assay; 1 µmol/L single concentration; read-out: %-inhibition BUB1/BUB3.
Test [5] addresses panel of 255 wild-type kinases (Homo sapiens, UniProt P16591). The settings on record: kinase FER; 1 µmol/L single concentration; read-out: %-inhibition at 1 µmol/L, FER.
In test [6] the target is panel of 255 wild-type kinases (Homo sapiens, UniProt Q9Y3S1). The settings on record: kinase WNK2; 1 µmol/L single concentration; read-out: %-inhibition at 1 µmol/L, WNK2.
Test [7] concerns the target panel of 255 wild-type kinases (Homo sapiens, UniProt Q9NYY3). The settings on record: kinase PLK2; 1 µmol/L single concentration; read-out: %-inhibition at 1 µmol/L, PLK2.
Test [8] has as its target panel of 255 wild-type kinases (Homo sapiens, UniProt P54764). The note with it: kinase EPHA4; 1 µmol/L single concentration; read-out: %-inhibition at 1 µmol/L, EPHA4.
The target in test [9] is panel of 255 wild-type kinases (Homo sapiens, UniProt Q9H4A3). The settings on record: kinase WNK1; 1 µmol/L single concentration; read-out: %-inhibition at 1 µmol/L, WNK1.
For test [10], the target named is panel of 255 wild-type kinases (Homo sapiens, UniProt P49674). The settings on record: kinase CK1ε; 1 µmol/L single concentration; read-out: %-inhibition at 1 µmol/L, CK1ε.
Test [11] concerns the target panel of 255 wild-type kinases (Homo sapiens, UniProt P48729). The note with it: kinase CK1α; 1 µmol/L single concentration; read-out: %-inhibition at 1 µmol/L, CK1α.
The target of test [12] is panel of 255 wild-type kinases (Homo sapiens, UniProt Q07912). The note with it: ACK kinase assay; 1 µmol/L single concentration; read-out: %-inhibition ACK.
The target of test [13] is panel of 255 wild-type kinases (Homo sapiens, UniProt P05771). The note with it: kinase PKCβ1; 1 µmol/L single concentration; read-out: %-inhibition at 1 µmol/L, PKCβ1.
For test [14], the target named is panel of 255 wild-type kinases (Homo sapiens, UniProt P07333). The note with it: kinase FMS; 1 µmol/L single concentration; read-out: %-inhibition at 1 µmol/L, FMS.
Test [15] concerns the target panel of 255 wild-type kinases (Homo sapiens, UniProt O75116). The settings on record: kinase ROCK2; 1 µmol/L single concentration; read-out: %-inhibition at 1 µmol/L, ROCK2.
The target of test [16] is panel of 255 wild-type kinases (Homo sapiens, UniProt Q13164). The note with it: kinase Erk5; 1 µmol/L single concentration; read-out: %-inhibition at 1 µmol/L, Erk5.
The target of test [17] is panel of 255 wild-type kinases (Homo sapiens, UniProt P17612). The note with it: read-out: %-inhibition at 1 µmol/L, PKACα.
For test [18], the target named is panel of 255 wild-type kinases (Homo sapiens, UniProt P07332). The settings on record: kinase FES; 1 µmol/L single concentration; read-out: %-inhibition at 1 µmol/L, FES.
The target in test [19] is panel of 255 wild-type kinases (Homo sapiens, UniProt O75582). The note with it: MSK1; 1 µmol/L single concentration; read-out: %-inhibition, MSK1.
The mark [20] stands for this setting: kinase PKACα, 1 µmol/L single concentration.

On to `CO[C@]1(C(=O)N[C@@H](C)c2ccc(-n3cc(F)cn3)nc2)CC[C@H](c2nc(C)cc(Nc3cc(C)[nH]n3)n2)CC1` [pralsetinib], for which the inhibition at 1 µM is 99% in test [1]; 99% in [2]; 3% in [3]; -0.908% in [4]; 75% in test [5]; -1% in [6]. The inhibition at 1 µM was 6.54% in [7]; 52% in [8]; -2.67% in test [9]; -3% in [10]; -2.22% in test [11]; 84% in [12]. Moreover, the inhibition at 1 µM in test [13] came out at 2.58%; in [14] it was 94%; in [15], 1.29%; in [16], 0.775%; in test [17] (setting [20]), 16%; in [18] it was 8%. Further, the inhibition at 1 µM in [19] came out at 10%.

For the compound `Cc1nc(NC(=O)N2CCC[C@H]2C(N)=O)sc1-c1ccnc(C(C)(C)C(F)(F)F)c1` [alpelisib], the inhibition at 1 µM was 0.405% in [1]; 1.62% in test [2]; 2.59% in [3]; -4.62% in [4]; -1.86% in [5]; -3.36% in test [6]. In addition, the inhibition at 1 µM in [7] is 10%; in test [8], -5%; in [9] it was -4%; in test [10], -2.48%; in test [11], -14%; in [12], 5.5%. Moreover, the inhibition at 1 µM was 7% in [13]; 14% in [14]; 0.528% in test [15]; 0.367% in test [16]; -13% in [17] (setting [20]); -3.47% in [18]. Besides, in test [19], the inhibition at 1 µM was -8%.

In the case of `FC(F)(F)c1ccc(CNc2ccc(Cc3c[nH]c4ncc(Cl)cc34)cn2)cn1` [pexidartinib], the inhibition at 1 µM was 83% in test [1]; 88% in test [2]; 0.932% in test [3]; 5.7% in test [4]; 21% in [5]; -1.8% in [6]. For the same compound, the inhibition at 1 µM was 7% in [7]; 1.65% in test [8]; -1.24% in test [9]; 5.38% in test [10]; 4.47% in test [11]; 12% in test [12]. Moreover, the inhibition at 1 µM is 4.22% in test [13]; 95% in test [14]; 0.233% in test [15]; 10% in test [16]; -7% in test [17] (setting [20]); 27% in [18]. The inhibition at 1 µM in test [19] was determined as 10%.

`CCc1nc(C(N)=O)c(Nc2ccc(N3CCC(N4CCN(C)CC4)CC3)c(OC)c2)nc1NC1CCOCC1` [gilteritinib]: the inhibition at 1 µM in test [1] was 95%; in test [2], 100%; in [3], 4%; in test [4], 54%; in test [5] it was 99%; in test [6], -1%. In addition, the inhibition at 1 µM in test [7] is 4.71%; in test [8], 36%; in test [9] it was -3%; in [10], 5.55%; in test [11] it was 13%; in [12] it was 90%. Further, the inhibition at 1 µM in test [13] stood at 19%; in test [14], 104%; in test [15], 66%; in test [16] it was 38%; in test [17], 7%; in test [18], 76%. In addition, the inhibition at 1 µM in [19] was 25%.

With `O=C(Nc1cnn2ccc(N3CCC[C@@H]3c3cc(F)ccc3F)nc12)N1CC[C@H](O)C1` [larotrectinib], the inhibition at 1 µM in test [1] is 2.45%; in test [2] it was 1.71%; in test [3] it was -1.34%; in test [4], -6%; in test [5], 3.72%; in test [6] it was -2%. For the same compound, the inhibition at 1 µM in test [7] was 2.14%; in [8], -0.0271%; in [9], -4.49%; in [10], -2.19%; in test [11], 1.46%; in test [12], 52%. For the same compound, the inhibition at 1 µM in test [13] was -2.11%; in test [14], -4.31%; in test [15], -3.33%; in [16], 1.26%; in test [17] (setting [20]), -20%; in [18] it was -1.07%. In [19], the inhibition at 1 µM is -0.0628%.
